{
  "source": "patent US5015659A",
  "about": "“Thienylacetic acid derivatives, process for the preparation thereof, the use thereof, and pharmaceuticals containing these and the preparation thereof” (Cassella Aktiengesellschaft, priority 1989, dated 1991)",
  "key": {"[1]": {"tested_on": "Ischaemia-induced amnesia in the Mongolian gerbil", "assay": "Ischaemia-induced amnesia, passive-avoidance learning after brief bilateral cerebral ischaemia", "format": "in vivo", "conditions": "for Ischaemia-induced learning impairment, % reversal of learning impairment: immediately after the end of ischaemia; for ED50: Meriones unguiculatus, ip, i.p. immediately after the end of ischaemia (3-5 min), read-out: Dose which elicits a half-maximum (about 50%) antagonism of the learning impairment", "experimental": "Brief bilateral cerebral ischaemia (3-5 min) in the gerbil leads to a prolonged learning impairment in passive-avoidance learning. The learning impairment can be antagonized if the animals are treated intraperitoneally with the compounds of the general formula I immediately after the end of ischaemia. The table which follows indicates the dosages which elicit a half-maximum (about 50%) antagonism of the learning impairment. The compounds according to the invention show a pronounced superiority to the compounds of the state of the art."}, "glycine receptor": {"molecular_target": "glycine receptor", "assay": "Receptor-binding studies in vitro, rat cortex synaptosomes", "conditions": "for Kd: read-out: Binding to glycine receptors in the brain, Kd"}, "[2]": {"tested_on": "Scopolamine-induced amnesia in the mouse", "assay": "Scopolamine-induced amnesia, passive-avoidance learning test", "format": "in vivo", "conditions": "scopolamine 3 mg/kg i.p.; for Scopolamine amnesia, % reversal of amnesia: 30 mg/kg oral pretreatment", "experimental": "1) Scopolamine-induced amnesia in the mouse\nInjection of a scopolamine dose of 3 mg/kg i.p. leads to an amnesia in a passive-avoidance learning test."}},
  "note": "Structures can show the parent of a compound that is named as a salt.",
  "data": [
    {"compound": "NC(C(=O)NCC(=O)O)c1cccs1", "note": "(stereo not shown) [Example 11, N-(2-Thienylaminoacetyl)glycine]", "values": [
      {"measurement": "Ischaemia-induced learning impairment, % reversal of learning impairment", "setting": "[1]; 1.00 mg/kg ip", "result": 54, "unit": "%"},
      {"measurement": "ED50", "setting": "[1]", "result": 1, "unit": "mg/kg"},
      {"measurement": "Kd", "setting": "glycine receptor", "result": 1800, "unit": "nM"}
    ]},
    {"compound": "NC(=O)CN1CCCC1=O", "note": "[Piracetam, reference compound]", "values": [
      {"measurement": "Scopolamine amnesia, % reversal of amnesia", "setting": "[2]", "result": 18, "unit": "%"},
      {"measurement": "antagonism of scopolamine-induced amnesia (in words)", "setting": "[2]; oral pretreatment", "result": "only marginal activity"},
      {"measurement": "Binding to glycine receptors in the brain (in words)", "setting": "glycine receptor", "result": "No specific binding"}
    ]},
    {"compound": "Cl.NCC(=O)NC(C(=O)O)c1cccs1", "note": "(stereo not shown) [Example 9, 2-Thienyl-N-aminoacetylaminoacetic acid hydrochloride]", "values": [
      {"measurement": "Ischaemia-induced learning impairment, % reversal of learning impairment", "setting": "[1]; 0.10 mg/kg ip", "result": 54, "unit": "%"},
      {"measurement": "ED50", "setting": "[1]", "result": 0.1, "unit": "mg/kg"},
      {"measurement": "Kd", "setting": "glycine receptor", "result": 1800, "unit": "nM"}
    ]},
    {"compound": "NC(=O)CN1CC(O)CC1=O", "note": "(stereo not shown) [Oxiracetam, reference compound]", "values": [
      {"measurement": "Ischaemia-induced learning impairment, % reversal of learning impairment", "setting": "[1]; 100.00 mg/kg ip", "result": 46, "unit": "%"},
      {"measurement": "ED50", "setting": "[1]", "result": 100, "unit": "mg/kg"}
    ]},
    {"compound": "COc1ccc(C(=O)N2CCCC2=O)cc1", "note": "[Aniracetam, reference compound]", "values": [
      {"measurement": "Ischaemia-induced learning impairment, % reversal of learning impairment", "setting": "[1]; 30.00 mg/kg ip", "result": 45, "unit": "%"},
      {"measurement": "ED50", "setting": "[1]", "result": 30, "unit": "mg/kg"}
    ]},
    {"compound": "NC(=O)C(NCC(=O)O)c1cccs1", "note": "(stereo not shown) [Example 8, 2-Thienyl-N-hydroxycarbonylmethylaminoacetamide hydrochloride]", "values": [
      {"measurement": "Scopolamine amnesia, % reversal of amnesia", "setting": "[2]", "result": 71, "unit": "%"},
      {"measurement": "Ischaemia-induced learning impairment, % reversal of learning impairment", "setting": "[1]; 0.03 mg/kg ip", "result": 58, "unit": "%"},
      {"measurement": "ED50", "setting": "[1]", "result": 0.03, "unit": "mg/kg"}
    ]},
    {"compound": "NC(=O)CNC(C(=O)O)c1cccs1", "note": "(stereo not shown) [Example 5, 2-Thienyl-N-aminocarbonylmethylaminoacetic acid]", "values": [
      {"measurement": "Scopolamine amnesia, % reversal of amnesia", "setting": "[2]", "result": 56, "unit": "%"},
      {"measurement": "Ischaemia-induced learning impairment, % reversal of learning impairment", "setting": "[1]; 1.00 mg/kg ip", "result": 51, "unit": "%"},
      {"measurement": "ED50", "setting": "[1]", "result": 1, "unit": "mg/kg"}
    ]}
  ]
}
